Laboratory results published in ChEMBL document CHEMBL1201862, “PubChem BioAssay data set” (2004).
Calls of active or inactive are those of the source.

Key:
[1] = target: Cytochrome P450 2C9 (Homo sapiens, UniProt P11712)
[2] = target: T1, Protein RecA (Mycobacterium tuberculosis, UniProt P9WHJ3); assay: Fluorescence Cell-Free Homogeneous Dose Retest to Identify Inhibitors of RecA-Intein Splicing Activity. [Related pubchem assays (depositor defined):AID2097, AID2223, AID489010, AID492950]; type: functional
T1 sequence (P9WHJ3 whole entry): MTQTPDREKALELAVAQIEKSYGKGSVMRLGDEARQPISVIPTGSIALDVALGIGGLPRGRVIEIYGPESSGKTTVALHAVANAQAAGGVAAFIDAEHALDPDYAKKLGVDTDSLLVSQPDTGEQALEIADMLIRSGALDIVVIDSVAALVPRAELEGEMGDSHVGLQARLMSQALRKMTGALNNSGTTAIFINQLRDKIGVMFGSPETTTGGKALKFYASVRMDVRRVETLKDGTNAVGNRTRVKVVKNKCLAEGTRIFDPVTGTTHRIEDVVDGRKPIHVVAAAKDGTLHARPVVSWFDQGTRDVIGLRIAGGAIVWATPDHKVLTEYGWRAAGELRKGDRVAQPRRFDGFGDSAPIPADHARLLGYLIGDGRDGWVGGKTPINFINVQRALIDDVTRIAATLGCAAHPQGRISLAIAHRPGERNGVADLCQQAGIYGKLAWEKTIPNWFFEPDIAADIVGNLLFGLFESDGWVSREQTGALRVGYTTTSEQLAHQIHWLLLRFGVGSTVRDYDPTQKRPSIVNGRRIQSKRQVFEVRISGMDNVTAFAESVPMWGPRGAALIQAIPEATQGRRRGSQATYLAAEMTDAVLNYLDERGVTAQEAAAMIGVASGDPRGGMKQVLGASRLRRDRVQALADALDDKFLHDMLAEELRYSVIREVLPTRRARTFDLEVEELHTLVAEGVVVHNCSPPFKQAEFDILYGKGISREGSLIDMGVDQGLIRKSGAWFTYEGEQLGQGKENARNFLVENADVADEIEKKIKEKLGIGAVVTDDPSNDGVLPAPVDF

[3] = target: T2, Replicative DNA helicase DnaB (Mycobacterium tuberculosis, UniProt P9WMR3); assay: DnaB intein splicing inhibitors, dose response, biochemical, cell-free fluorescence (AID 449749); type: functional
T2 sequence (P9WMR3 whole entry): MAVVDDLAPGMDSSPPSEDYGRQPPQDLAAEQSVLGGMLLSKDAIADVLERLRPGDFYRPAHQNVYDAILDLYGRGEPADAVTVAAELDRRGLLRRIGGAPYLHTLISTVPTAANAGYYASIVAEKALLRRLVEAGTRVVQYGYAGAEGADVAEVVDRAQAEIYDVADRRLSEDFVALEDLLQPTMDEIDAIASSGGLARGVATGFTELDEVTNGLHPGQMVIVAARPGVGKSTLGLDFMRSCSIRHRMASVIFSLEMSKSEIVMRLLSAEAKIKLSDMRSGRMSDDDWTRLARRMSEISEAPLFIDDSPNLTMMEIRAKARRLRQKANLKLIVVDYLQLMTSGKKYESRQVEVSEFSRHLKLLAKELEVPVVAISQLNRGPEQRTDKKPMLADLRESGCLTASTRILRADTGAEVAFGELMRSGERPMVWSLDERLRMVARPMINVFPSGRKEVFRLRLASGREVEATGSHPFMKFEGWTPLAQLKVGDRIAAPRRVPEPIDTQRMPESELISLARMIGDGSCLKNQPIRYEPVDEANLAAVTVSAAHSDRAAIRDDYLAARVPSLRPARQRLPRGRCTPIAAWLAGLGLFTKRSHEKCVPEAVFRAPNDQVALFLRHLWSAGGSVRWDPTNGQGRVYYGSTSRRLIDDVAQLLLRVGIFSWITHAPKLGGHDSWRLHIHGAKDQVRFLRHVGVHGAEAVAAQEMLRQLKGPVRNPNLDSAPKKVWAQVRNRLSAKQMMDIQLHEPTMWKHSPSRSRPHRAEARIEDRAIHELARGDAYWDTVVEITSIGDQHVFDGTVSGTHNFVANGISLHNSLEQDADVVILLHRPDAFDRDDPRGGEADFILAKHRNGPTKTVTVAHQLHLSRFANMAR

[4] = target: T3, Cytochrome P450 1A2 (Homo sapiens, UniProt P05177);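 further: PubChem cytochrome P450 panel assay, CYP1A2 panel member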
T3 sequence (P05177 whole entry): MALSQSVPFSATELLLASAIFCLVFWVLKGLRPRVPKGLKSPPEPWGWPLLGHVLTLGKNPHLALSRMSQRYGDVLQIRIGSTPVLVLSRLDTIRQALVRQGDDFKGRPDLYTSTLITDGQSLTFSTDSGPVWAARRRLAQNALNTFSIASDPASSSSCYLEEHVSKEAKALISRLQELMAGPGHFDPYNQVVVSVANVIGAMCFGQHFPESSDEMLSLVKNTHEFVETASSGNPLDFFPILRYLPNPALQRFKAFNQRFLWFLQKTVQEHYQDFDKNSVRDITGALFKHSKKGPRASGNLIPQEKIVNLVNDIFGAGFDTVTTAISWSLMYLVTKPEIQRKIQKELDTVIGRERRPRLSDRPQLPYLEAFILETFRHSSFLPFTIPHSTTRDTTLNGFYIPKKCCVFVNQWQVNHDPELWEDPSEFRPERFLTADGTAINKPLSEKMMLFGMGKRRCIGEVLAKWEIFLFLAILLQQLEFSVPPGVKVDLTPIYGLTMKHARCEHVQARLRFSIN

[5] = target: T4, Heat shock factor protein 1 (Mus musculus, UniProt P38532); assay: enhancement of HSF1-driven luciferase signal – cell-based, NIH3T3, luminescence, dose retest, confirmation (AID 435004); type: functional;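 further: stress induced by proteasome inhibitor MG132 added 30 min after compound; luciferase reporter driven by HSF1 response element in NIH3T3 cells; actives raise luminescence as potentiators of the MG132 stress response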
T4 sequence (P38532 whole entry): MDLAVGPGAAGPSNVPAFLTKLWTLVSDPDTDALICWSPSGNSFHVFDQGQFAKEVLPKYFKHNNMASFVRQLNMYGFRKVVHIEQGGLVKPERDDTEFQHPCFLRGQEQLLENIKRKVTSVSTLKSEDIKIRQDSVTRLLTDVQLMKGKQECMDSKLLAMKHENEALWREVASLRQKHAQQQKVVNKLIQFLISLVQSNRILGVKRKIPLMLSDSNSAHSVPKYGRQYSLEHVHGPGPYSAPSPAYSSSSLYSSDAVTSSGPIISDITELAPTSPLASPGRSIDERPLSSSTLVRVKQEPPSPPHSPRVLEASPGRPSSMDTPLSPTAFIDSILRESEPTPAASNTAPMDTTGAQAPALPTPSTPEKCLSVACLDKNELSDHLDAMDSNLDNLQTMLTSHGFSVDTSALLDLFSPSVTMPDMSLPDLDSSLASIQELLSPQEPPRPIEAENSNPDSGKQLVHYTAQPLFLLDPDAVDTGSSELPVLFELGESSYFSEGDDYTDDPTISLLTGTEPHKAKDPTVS

[6] = target: Cytochrome P450 3A4 (Homo sapiens, UniProt P08684);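 further: CYP3A4 tested as one member of a cytochrome P450 panel screen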
[7] = target: Cytochrome P450 2C19 (Homo sapiens, UniProt P33261); assay: Cytochrome panel assay with activity outcomes. Panel member name: p450-cyp2c19 Compounds with AC50 equal or less than 10 uM are considered active; type: functional; conditions: read-out: AC50
[8] = Trypanosoma cruzi growth suppression in host cells – NIH3T3 host cells, beta-gal luminescence, confirmation (AID 2044); type: functional, cell-based;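 further: intracellular parasites grown in NIH/3T3 mouse fibroblasts as host cells; luminescent beta-galactosidase reporter signal from transgenic T. cruzi replicating inside host cells; inhibitors lower the luminescence signal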
[9] = NIH3T3 cell viability loss – ATP luminescence, mouse fibroblasts, counter-screen, dose response (AID 2010); type: functional, cell-based;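 further: cells exposed to compound for about 90 hours before reading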
[10] = Luminescence Cell-Based Dose Retest to Confirm Inhibitors of Cancer Stem Cells. [Related pubchem assays (depositor defined):AID2717, AID2721]; type: functional; conditions: Homo sapiens
[11] = target: Paired box protein Pax-8 (Homo sapiens, UniProt Q06710); assay: PAX8 transcriptional activity inhibition in RMG-I – RMG-I cells, luciferase, cherry-pick, dose response (AID 687027); type: functional, cell-based;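 further: luciferase reporter driven by Pax8 target thyroperoxidase promoter measured by SteadyGlo luminescence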
Paired box protein Pax-8, sequence (Q06710 whole entry): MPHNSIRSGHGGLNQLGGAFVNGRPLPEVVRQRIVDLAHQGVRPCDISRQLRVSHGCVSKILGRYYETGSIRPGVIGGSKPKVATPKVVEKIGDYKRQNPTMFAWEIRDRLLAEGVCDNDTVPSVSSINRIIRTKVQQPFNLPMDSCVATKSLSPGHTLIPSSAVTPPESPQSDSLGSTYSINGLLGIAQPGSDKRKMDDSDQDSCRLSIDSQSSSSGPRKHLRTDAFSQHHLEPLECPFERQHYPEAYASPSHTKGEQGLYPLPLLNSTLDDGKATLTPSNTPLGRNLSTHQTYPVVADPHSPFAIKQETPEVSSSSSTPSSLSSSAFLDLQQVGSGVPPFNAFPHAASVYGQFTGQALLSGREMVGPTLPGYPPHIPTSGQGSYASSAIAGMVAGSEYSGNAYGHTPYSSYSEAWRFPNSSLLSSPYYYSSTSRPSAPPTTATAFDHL

Cytochrome P450 2C19, sequence (P33261 whole entry): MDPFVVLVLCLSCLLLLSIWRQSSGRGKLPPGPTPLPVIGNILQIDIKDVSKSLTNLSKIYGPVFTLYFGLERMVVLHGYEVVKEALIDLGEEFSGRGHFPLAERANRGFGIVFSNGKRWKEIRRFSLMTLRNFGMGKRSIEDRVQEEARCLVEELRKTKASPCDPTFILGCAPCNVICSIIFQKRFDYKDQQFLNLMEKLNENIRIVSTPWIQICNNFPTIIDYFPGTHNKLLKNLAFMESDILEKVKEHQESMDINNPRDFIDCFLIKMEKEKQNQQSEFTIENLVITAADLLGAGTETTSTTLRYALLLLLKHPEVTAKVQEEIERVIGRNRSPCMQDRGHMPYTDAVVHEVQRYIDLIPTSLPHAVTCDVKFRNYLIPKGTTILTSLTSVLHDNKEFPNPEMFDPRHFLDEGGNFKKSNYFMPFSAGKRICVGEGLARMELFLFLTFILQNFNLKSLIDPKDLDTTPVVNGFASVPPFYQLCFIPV
Cytochrome P450 3A4, sequence (P08684 whole entry): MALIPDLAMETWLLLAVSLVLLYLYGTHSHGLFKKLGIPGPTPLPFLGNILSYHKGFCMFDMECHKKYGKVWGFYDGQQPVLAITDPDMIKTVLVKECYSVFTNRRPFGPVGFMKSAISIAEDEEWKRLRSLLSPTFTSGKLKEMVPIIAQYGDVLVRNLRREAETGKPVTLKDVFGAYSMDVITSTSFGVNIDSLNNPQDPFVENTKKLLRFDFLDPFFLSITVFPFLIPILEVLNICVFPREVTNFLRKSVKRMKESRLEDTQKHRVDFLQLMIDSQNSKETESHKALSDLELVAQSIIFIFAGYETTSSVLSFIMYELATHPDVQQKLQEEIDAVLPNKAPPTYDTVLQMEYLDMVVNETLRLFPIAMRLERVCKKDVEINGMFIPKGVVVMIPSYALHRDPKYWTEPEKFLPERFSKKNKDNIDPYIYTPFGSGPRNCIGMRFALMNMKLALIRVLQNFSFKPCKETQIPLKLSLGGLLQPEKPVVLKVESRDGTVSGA
Cytochrome P450 2C9, sequence (P11712 whole entry): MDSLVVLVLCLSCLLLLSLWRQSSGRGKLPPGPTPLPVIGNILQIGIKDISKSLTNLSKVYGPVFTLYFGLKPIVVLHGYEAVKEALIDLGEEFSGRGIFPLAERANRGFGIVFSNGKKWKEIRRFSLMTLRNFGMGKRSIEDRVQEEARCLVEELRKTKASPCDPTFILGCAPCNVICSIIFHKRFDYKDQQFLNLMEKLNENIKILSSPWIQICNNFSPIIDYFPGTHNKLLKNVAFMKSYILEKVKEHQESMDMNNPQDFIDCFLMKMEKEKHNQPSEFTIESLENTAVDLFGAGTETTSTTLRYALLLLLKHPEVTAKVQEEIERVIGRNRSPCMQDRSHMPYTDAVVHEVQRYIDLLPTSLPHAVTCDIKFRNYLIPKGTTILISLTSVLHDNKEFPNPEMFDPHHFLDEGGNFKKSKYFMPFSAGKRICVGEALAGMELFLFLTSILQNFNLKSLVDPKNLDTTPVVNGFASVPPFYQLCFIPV

Cc1oc(C(C)(C)C)cc1C(=O)Nc1cccc(/C=C/C(=O)O)c1
AC50 [1]: 4.47 µM (inconclusive)

COc1ccc(Br)cc1[C@H]1[C@H]2C=CC[C@@H](C)[C@@H]2C(=O)N1Cc1ccccc1
EC50 [2]: 163 µM (active)
AC50 [3]: 2.46 µM (active)

Clc1ccc(CCNc2nc3ccccc3s2)cc1
AC50 [1]: 12.6 µM (inconclusive)

O=C(CCCN1C(=O)/C(=C\c2ccccc2)SC1=S)Nc1ccc(O)cc1C(=O)O
EC50 [2]: 15.1 µM (active)
AC50 [3]: 15.4 µM (active)

CCC#CCOCC(=S)Nc1ccccc1
AC50 [4]: 15.8 µM (inconclusive)

Cc1cc(-c2ccc(C(C)C)c(S(=O)(=O)NCCN3CCC(C)CC3)c2)on1
EC50 [5]: > 260 µM (inactive)

CCc1cc2c(=O)c(-c3nc4ccccc4[nH]3)coc2cc1OC(=O)N1CCOCC1
AC50 [1]: 8.91 µM (inconclusive)
AC50 [6]: 5.01 µM (inconclusive)

COc1ccc2[nH]cc(CCNc3ccnc(-c4ccccc4Cl)n3)c2c1
AC50 [1]: 1 µM (inconclusive)

CCNc1ncc2nc(-c3ccccc3)c(=O)n(CCOC)c2n1
AC50 [1]: 20 µM (inconclusive)
AC50 [6]: 31.6 µM (inconclusive)
AC50 [7]: 31.6 µM (inconclusive)

CC(C)NC(=O)N1CC[C@@]2(CCCN(S(C)(=O)=O)C2)C1
AC50 [1]: 25.1 µM (inconclusive)
AC50 [7]: 39.8 µM (inconclusive)

N#C/C(C(=O)NCc1ccccc1)=C1/N=C(NC(=O)c2ccco2)c2ccccc21
EC50 [5]: > 260 µM (inactive)

Cc1cc(C)c(S(=O)(=O)N2CCN(c3ccc([N+](=O)[O-])c(NCc4ccco4)c3)CC2)c(C)c1
AC50 [1]: 0.562 µM (inconclusive)
AC50 [7]: 0.708 µM (inconclusive)

CCC(C)n1c(SCC(=O)NC(=O)Nc2ccc3c(c2)OCCO3)nc2ccccc2c1=O (configuration not stated)
EC50 [8]: 2.2 µM (active)
EC50 [9]: > 60 µM (not active)
EC50 [5]: > 260 µM (inactive)

COCCN(C(=O)C(C)C)c1nnc(-c2ccc(C(C)(C)C)cc2)s1
AC50 [10]: 2.42 µM (active)

COCCCNC(=O)c1c(NC(=O)c2cccs2)sc2c1CCCC2
AC50 [1]: 0.562 µM (inconclusive)
AC50 [7]: 4.47 µM (inconclusive)

CCOc1ccccc1CN1CCN(Cc2cn(C)nc2-c2ccccc2)CC1CCO (configuration not stated)
EC50 [5]: > 260 µM (inactive)

N=C(N)NS(=O)(=O)c1ccc(NC(=S)NC(=O)c2ccc(Br)cc2)cc1
EC50 [5]: > 260 µM (inactive)

CCN(CC)C[C@@H]1CCCCN1CC(=O)N1c2ccccc2C(=O)Nc2cccnc21
AC50 [4]: 31.6 µM (inconclusive)

CC(C)c1n[nH]c2c1C(c1cccc(OC(=O)N3CCOCC3)c1)C(C#N)=C(N)O2 (configuration not stated)
EC50 [2]: 5.8 µM (active)
AC50 [3]: 33.4 µM (active)

Cc1ccc(S(=O)(=O)N2CCCCC2)cc1NC(=O)Cc1c[nH]c2ccccc12
AC50 [11]: 19.5 µM (active)

COc1cc(C(=O)OCC(=O)Nc2cc(C)on2)cc(OC)c1OC
AC50 [1]: 0.0447 µM (inconclusive)
AC50 [6]: 15.8 µM (inconclusive)

N#CCCn1c(=O)c(-c2cccs2)nc2cnc(OCc3ccccc3)nc21
AC50 [1]: 1.58 µM (inconclusive)

COc1cccc(Nc2ncc3nc(-c4ccccc4)c(=O)n(Cc4cccs4)c3n2)c1
AC50 [4]: 20 µM (inconclusive)

COC(=O)CN1C(=O)S/C(=C/c2ccc(N3CCCCC3)o2)C1=O
AC50 [1]: 5.62 µM (inconclusive)
AC50 [6]: 15.8 µM (inconclusive)
AC50 [7]: 5.62 µM (inconclusive)

CCOC(=O)c1nc(O)c2ccccc2c1O
EC50 [2]: 5.23 µM (active)
AC50 [3]: > 380 µM (inactive)

Clc1ccccc1-c1nc(NCc2cccs2)c2ccccc2n1
AC50 [1]: 0.794 µM (inconclusive)

Cc1n[nH]c2c1C(c1ccc(Cl)cc1)C(C#N)=C(N)O2 (configuration not stated)
EC50 [2]: 6.1 µM (active)
AC50 [3]: 9.8 µM (active)

Nc1nc(S)nc2c1C1(CCCC1)Cc1ccccc1-2
AC50 [1]: 0.355 µM (inconclusive)
AC50 [7]: 11.2 µM (inconclusive)

CCOCCCn1cnc2c3ccc(OC)cc3nc-2c1O
AC50 [1]: 39.8 µM (inconclusive)

CCC(=O)N1CCN(c2ccc(NC(=O)COc3ccc(C)cc3C)cc2)CC1
EC50 [5]: > 260 µM (inactive)

O=[N+]([O-])c1ccc(N/N=C/c2sc(N3CCOCC3)nc2-c2ccccc2)c(S(=O)(=O)Nc2ccc(Cl)cc2)c1
AC50 [11]: 1.99 µM (active)

COc1cc(C(c2c(C)n[nH]c2O)c2c(C)n[nH]c2O)cc(Br)c1OC
EC50 [2]: 0.274 µM (active)
AC50 [3]: 0.756 µM (active)

CCN(C(=O)Cn1c(=O)oc2ccccc21)c1cccc(C(F)(F)F)c1
AC50 [6]: 7.08 µM (inconclusive)
AC50 [4]: 39.8 µM (inconclusive)

CN1C(=O)COc2c(C(=O)N[C@@H]3CN4CCC3CC4)cc(Cl)cc21
AC50 [4]: 39.8 µM (inconclusive)

COC(=O)[C@@]12C[C@@H](CC(=O)N3CCN(C(=O)c4ccco4)CC3)C(=O)N(Cc3ccccc3)C1=CCC(C)(C)C2
AC50 [11]: 1.81 µM (active)

COc1ccc(NC(=O)Nc2ccc3c(c2)C(=O)N([C@@H](C)CO)C[C@@H](C)[C@@H](CN(C)Cc2ccc(C(F)(F)F)cc2)O3)cc1
AC50 [11]: 13.9 µM (active)

CC1(C)Cc2ccccc2C(/C=C(\O)c2ccccc2)=N1
AC50 [10]: 1.97 µM (active)

COCC(=O)O[C@]1(CCN(C)CCCc2nc3ccccc3[nH]2)CCc2cc(F)ccc2[C@@H]1C(C)C [MIBEFRADIL]
AC50 [4]: 31.6 µM (inconclusive)
